pEC50: −log10 of the molar value.
Biological target: T1, human mGluR7 (Homo sapiens, UniProt Q14831)
T1 construct: expressed in transfected cells
Assay: mGluR7 assay: CRE-directed luciferase reporter gene assay, reduction of forskolin stimulated cAMP production
Format: cell-based
Conditions: stable CHO cell line expressing the CRE-luc reporter and human mGluR7 genes; decrease of forskolin stimulated luminescence; 10-point concentration-response, duplicate wells
Protocol: The ability of the test compounds to activate mGluR7 was determined by their ability to reduce forskolin stimulated cAMP production. Compounds were assessed in a CRE-directed luciferase reporter gene assay, using a stable CHO cell line expressing the CRE-luc reporter and human mGluR7 genes. In this cell line, production of cAMP stimulated the transcription of the luciferase gene and luciferase activity was then measured in a luminescent enzyme assay (Steady Glo assay; Promega E2550). Activation of mGluR7 decreased the forskolin stimulated luminescence signal.
The day prior to the assay, compounds were serially diluted in DMSO (100× final assay concentration (FAC)), in 384-well plates which were then stored in the dark at room temperature (RT) until use. Cells were seeded at 12.5 k/well in white, clear bottom 384-well plates (Corning 3707) and left for one hour at RT followed by an overnight incubation (37° C.). The following day, the DMSO compound plate was diluted 1:20 (5× FAC) in Opti-MEM I (Life Technologies 11058021). The growth media was removed from the cell plate and replaced with 15 μl Opti-MEM I, followed by a 5 μl addition from the 5× compound plate and a fifteen minute incubation (37° C.). Forskolin (Sigma F3917) was then added to the wells (5 μl of 2.5 μM) and the plate was incubated for five hours (37° C.). During this incubation, the Steady Glo Substrate reagent was warmed to 37° C. Aliquots (11 ml; stored at −20° C.) of this reagent were prepared by dissolving the contents of 1 vial of lyophilised substrate in 100 ml Steady-Glo buffer. A 25 μl addition of the substrate was made to all wells and the plate was incubated for thirty minutes at RT, on a plate shaker (300 rpm; in the dark). Luminescence was then measured using the EnVision Multilabel Reader (Perkin Elmer).
Compound activity was examined using a 10-point, half log concentration-response range and each concentration was tested in duplicate wells. Luminescence values were normalised to ‘maximum’ (forskolin alone) and ‘minimum’ (forskolin in the presence of tool mGluR7 agonist) controls.

T1 sequence (Q14831 35-915): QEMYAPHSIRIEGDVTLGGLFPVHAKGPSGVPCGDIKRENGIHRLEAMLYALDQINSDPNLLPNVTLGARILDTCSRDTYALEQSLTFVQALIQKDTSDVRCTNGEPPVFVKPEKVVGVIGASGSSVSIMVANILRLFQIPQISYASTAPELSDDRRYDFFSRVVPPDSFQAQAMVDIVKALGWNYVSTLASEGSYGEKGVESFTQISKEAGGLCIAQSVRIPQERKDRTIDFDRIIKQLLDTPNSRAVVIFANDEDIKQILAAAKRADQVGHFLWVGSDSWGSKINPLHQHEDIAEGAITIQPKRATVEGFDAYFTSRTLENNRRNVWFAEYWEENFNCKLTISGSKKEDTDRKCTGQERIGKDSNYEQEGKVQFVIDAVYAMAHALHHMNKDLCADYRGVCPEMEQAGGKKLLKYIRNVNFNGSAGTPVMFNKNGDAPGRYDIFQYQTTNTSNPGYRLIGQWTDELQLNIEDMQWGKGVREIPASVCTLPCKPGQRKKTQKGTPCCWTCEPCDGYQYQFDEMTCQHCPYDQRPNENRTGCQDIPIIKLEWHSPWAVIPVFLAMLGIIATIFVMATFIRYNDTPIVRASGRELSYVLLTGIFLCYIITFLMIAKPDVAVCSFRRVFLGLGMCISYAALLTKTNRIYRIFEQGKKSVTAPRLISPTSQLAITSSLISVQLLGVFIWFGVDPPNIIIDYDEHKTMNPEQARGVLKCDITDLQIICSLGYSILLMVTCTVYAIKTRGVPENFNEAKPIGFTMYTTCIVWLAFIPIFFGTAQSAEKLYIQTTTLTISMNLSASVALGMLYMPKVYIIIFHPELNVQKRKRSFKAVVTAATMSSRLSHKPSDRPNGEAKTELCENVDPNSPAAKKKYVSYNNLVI

pEC50	SMILES
8.52	CCO[C@@H]1c2ccccc2C[C@H]1NC(=O)[C@@H](NCc1csc(C)n1)c1ccc(F)cc1 (mixture of isomers) [Example 60, (2S)—N-(trans)-(1-ethoxy-2,3-dihydro-1H-inden-2-yl)-2-(4-fluorophenyl)-2-{[(2-methyl-1,3-thiazol-4-yl)methyl]amino}acetamide]
7.08	CC(C)(C)OC(=O)N[C@H]1c2ccccc2C[C@@H]1NC(=O)C(c1ccc(F)cc1F)n1cccn1 (mixture of isomers) [Example 81, tert-butyl N-[(1S,2S)-2-[2-(2,4-difluorophenyl)-2-(1H-pyrazol-1-yl)acetamido]-2,3-dihydro-1H-inden-1-yl]carbamate]
6.11	Cc1nccn1C(C(=O)N[C@H]1Cc2ccccc2[C@@H]1NC(=O)OC(C)(C)C)c1ccc(F)cc1F (mixture of isomers) [Example 82, tert-butyl N-[(1S,2S)-2-[2-(2,4-difluorophenyl)-2-(2-methyl-1H-imidazol-1-yl)acetamido]-2,3-dihydro-1H-inden-1-yl]carbamate]
7.64	CC(C)(C)OC(=O)N[C@H]1c2ccccc2C[C@@H]1NC(=O)C(c1ccc(F)cc1F)N1CC(F)C1 (mixture of isomers) [Example 93, tert-butyl N-[(1S,2S)-2-[2-(2,4-difluorophenyl)-2-(3-fluoroazetidin-1-yl)acetamido]-2,3-dihydro-1H-inden-1-yl]carbamate]
6.97	C[C@H](C(=O)NC1Cc2ccccc2C1O)c1ccccc1 (mixture of isomers) [Example 2, (2S)—N-((trans)-1-hydroxy-2,3-dihydro-1H-inden-2-yl)-2-phenylpropanamide]
7.54	COC1c2ccccc2CC1NC(=O)[C@@H](C)c1ccccc1 (mixture of isomers) [Example 7, (2S)—N-((trans)-1-methoxy-2,3-dihydro-1H-inden-2-yl)-2-phenylpropanamide]
7.62	COC1c2ccccc2CC1NC(=O)[C@@H](C)c1ccc(F)cc1F (mixture of isomers) [Example 25, (2S)-2-(2,4-difluorophenyl)-N-((trans)-1-methoxy-2,3-dihydro-1H-inden-2-yl)propanamide]
7.55	CCOC1c2ccccc2CC1NC(=O)[C@@H](C)c1ccc(F)cc1F (mixture of isomers) [Example 28, (2S)-2-(2,4-difluorophenyl)-N-((trans)-1-ethoxy-2,3-dihydro-1H-inden-2-yl)propanamide]
7.44	COC1c2ccccc2CC1NC(=O)[C@@H](C)c1ccc(F)cc1 (mixture of isomers) [Example 36, (2S)-2-(4-fluorophenyl)-N-((trans)-1-methoxy-2,3-dihydro-1H-inden-2-yl)propanamide]
8.05	CC[C@H](C(=O)NC1Cc2ccccc2C1OC)c1ccc(F)cc1 (mixture of isomers) [Example 44, (2S)-2-(4-fluorophenyl)-N-((trans)-1-methoxy-2,3-dihydro-1H-inden-2-yl)butanamide]
7.18	COC1c2ccccc2CC1NC(=O)[C@@H](N)c1ccc(F)cc1 (mixture of isomers) [Example 54, (2S)-2-amino-2-(4-fluorophenyl)-N-(trans)-(1-methoxy-2,3-dihydro-1H-inden-2-yl)acetamide]
8.40	CS(=O)(=O)[C@@H]1c2ccccc2C[C@H]1NC(=O)C(OCC1CC1)c1ccccc1 (relative stereo) [Example 135, 2-(cyclopropylmethoxy)-N-(trans)-(1-methanesulfonyl-2,3-dihydro-1H-inden-2-yl)-2-phenylacetamide]
6.46	C[C@H](C(=O)NC1Cc2ccccc2C1O)c1ccccc1 (single isomer, unassigned) [Example 3]
6.92	C[C@H](C(=O)NC1Cc2ccccc2C1O)c1ccccc1 (single isomer, unassigned) [Example 4]
6.18	C[C@H](C(=O)NC1Cc2ccccc2C1O)c1ccccc1 (single isomer, unassigned) [Example 5]
5.81	C[C@H](C(=O)NC1Cc2ccccc2C1O)c1ccccc1 (single isomer, unassigned) [Example 6]
7.24	COC1c2ccccc2CC1NC(=O)[C@@H](C)c1ccccc1 (single isomer, unassigned) [Example 8]
7.43	COC1c2ccccc2CC1NC(=O)[C@@H](C)c1ccccc1 (single isomer, unassigned) [Example 9]

pEC50	SMILES
7.60	CCC(C(=O)N[C@H]1Cc2ccccc2[C@@H]1N)c1ccc(F)cc1F (single isomer, unassigned) [Example 15]
6.13	CCC(C(=O)N[C@H]1Cc2ccccc2[C@@H]1N)c1ccc(F)cc1F (single isomer, unassigned) [Example 16]
7.19	COC1c2ccccc2CC1NC(=O)[C@@H](C)c1ccc(F)cc1F (single isomer, unassigned) [Example 26]
7.68	COC1c2ccccc2CC1NC(=O)[C@@H](C)c1ccc(F)cc1F (single isomer, unassigned) [Example 27]
8.00	CCOC1c2ccccc2CC1NC(=O)C(C)c1ccc(F)cc1F (single isomer, unassigned) [Example 29]
7.66	CCOC1c2ccccc2CC1NC(=O)C(C)c1ccc(F)cc1F (single isomer, unassigned) [Example 30]
7.85	CCOC1c2ccccc2CC1NC(=O)[C@@H](C)c1ccc(F)cc1 (single isomer, unassigned) [Example 32]
7.41	CCOC1c2ccccc2CC1NC(=O)[C@@H](C)c1ccc(F)cc1 (single isomer, unassigned) [Example 33]
7.42	COC1c2ccccc2CC1NC(=O)[C@@H](C)c1ccc(F)cc1 (single isomer, unassigned) [Example 37]
7.80	COC1c2ccccc2CC1NC(=O)[C@@H](C)c1ccc(F)cc1 (single isomer, unassigned) [Example 38]
7.77	CC[C@H](C(=O)NC1Cc2ccccc2C1OC)c1ccc(F)cc1 (single isomer, unassigned) [Example 45]
7.96	CC[C@H](C(=O)NC1Cc2ccccc2C1OC)c1ccc(F)cc1 (single isomer, unassigned) [Example 46]
6.47	CC(C)(C)OC(=O)N[C@H]1c2ccccc2C[C@@H]1NC(=O)C(c1ccc(F)cc1F)n1ccccc1=O (single isomer, unassigned) [Example 48]
6.88	CC(C)(C)OC(=O)N[C@H]1c2ccccc2C[C@@H]1NC(=O)C(c1ccc(F)cc1F)n1ccccc1=O (single isomer, unassigned) [Example 49]
5.41	N[C@H]1c2ccccc2C[C@@H]1NC(=O)C(c1ccc(F)cc1F)n1ccccc1=O (single isomer, unassigned) [Example 50]
6.25	N[C@H]1c2ccccc2C[C@@H]1NC(=O)C(c1ccc(F)cc1F)n1ccccc1=O (single isomer, unassigned) [Example 51]
9.00	COC1c2ccccc2CC1NC(=O)[C@@H](NCC1CC1)c1ccc(F)cc1 (single isomer, unassigned) [Example 55]
9.00	COC1c2ccccc2CC1NC(=O)[C@@H](NCC1CC1)c1ccc(F)cc1 (single isomer, unassigned) [Example 56]

SMILES	pEC50
C[C@H](C(=O)NC1Cc2ccccc2C1N1CCCC1)c1ccccc1 (mixture of isomers) [Example 78, (2S)-2-phenyl-N-(trans)-[1-(pyrrolidin-1-yl)-2,3-dihydro-1H-inden-2-yl]propanamide]	6.49

Reference: US20190031599A1, “INDANE DERIVATIVES AS MGLUR7 MODULATORS” (Takeda Pharmaceutical Company Limited, priority 2016, published 2019)
